Experimental data as given in patent US11452717B2, “Small molecule activators of nicotinamide phosphoribosyltransferase (NAMPT) and uses thereof” (Sanford Burnham Prebys Medical Discovery Institute, priority 2017, dated 2022).

molecular target: NAMPT enzyme (Homo sapiens (Human), UniProt P43490); test: Enzyme Assay and NMN Detection (NAMPT reaction, fluorescence detection of NMN); format: biochemical; details: Table B-1; NAMPT activation, NMN formation
Summary of the method: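 NMN formed was read at ex380/em460 after acetophenone/KOH derivatization and formic acid addition, using a same-day calibration curve. Final conditions: NAMPT 16 nM, nicotinamide 5 uM, PRPP 6.25 uM, ATP 120 uM, pyrophosphatase 0.04 U/ml, pH 7.5 HEPES buffer with MgCl2 and TCEP, 2 h at room temperature.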

Sequence of NAMPT enzyme (P43490 whole entry, species assumed): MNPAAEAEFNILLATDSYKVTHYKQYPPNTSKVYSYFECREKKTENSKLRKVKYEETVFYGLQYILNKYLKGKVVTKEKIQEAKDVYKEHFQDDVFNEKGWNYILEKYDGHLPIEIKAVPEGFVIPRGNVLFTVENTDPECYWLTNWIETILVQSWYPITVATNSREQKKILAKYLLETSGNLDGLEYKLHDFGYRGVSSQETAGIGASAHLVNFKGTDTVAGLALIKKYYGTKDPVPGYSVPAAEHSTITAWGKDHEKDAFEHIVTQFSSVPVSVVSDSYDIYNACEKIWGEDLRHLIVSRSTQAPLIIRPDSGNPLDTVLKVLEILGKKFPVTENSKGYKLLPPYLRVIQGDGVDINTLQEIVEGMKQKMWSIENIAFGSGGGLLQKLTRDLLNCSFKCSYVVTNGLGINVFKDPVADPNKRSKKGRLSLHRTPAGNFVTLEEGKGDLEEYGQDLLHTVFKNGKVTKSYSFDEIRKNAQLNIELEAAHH

Compound | EC50 [nM]
O=C(NCc1cn[nH]c1)Nc1ccc(S(=O)(=O)NCc2ccccc2Cl)cc1 [N-(2-Chloro-benzyl)-4-[3-(1H-pyrazol-4-ylmethyl)-ureido]-benzenesulfonamide] | < 100
COc1ccccc1CNS(=O)(=O)c1ccc(NC(=O)NCc2cn[nH]c2)cc1 [N-(2-Methoxy-benzyl)-4-[3-(1H-pyrazol-4-ylmethyl)-ureido]-benzenesulfonamide] | < 100

same assay, conditions: Table B-2; NAMPT activation, NMN formation

Compound | EC50 [nM]
COC(=O)c1ccc(NC(=O)c2ccc(NC(=O)NCc3ccncc3)cc2)cc1 [Methyl 4-(4-(3-(pyridin-4-ylmethyl)ureido)benzamido)benzoate] | 100 to 2000
O=C(NCc1ccncc1)Nc1ccc(S(=O)(=O)N(Cc2ccccc2)Cc2ccccc2)cc1 [N,N-Dibenzyl-4-(3-pyridin-4-ylmethyl-ureido)-benzenesulfonamide] | > 20000
CN(C)S(=O)(=O)c1ccc(NC(=O)NCc2ccncc2)cc1 [N,N-Dimethyl-4-(3-pyridin-4-ylmethy-ureido)-benzenesulfonamide] | 2000 to 5000
CCN(CC)C(=O)c1ccc(NC(=O)NCc2ccncc2)cc1 [N,N-diethyl-4-(3-(pyridin-4-ylmethyl)ureido)benzamide] | > 20000
CN(C)C(=O)c1ccc(NC(=O)NCc2ccncc2)cc1 [N,N-dimethyl-4-(3-(pyridin-4-ylmethyl)ureido)benzamide] | > 20000
CN(C)S(=O)(=O)c1ccc(CNS(=O)(=O)c2ccc(NC(=O)NCc3ccncc3)cc2)cc1 [N,N-dimethyl-4-((4-(3-(pyridin-4-ylmethyl)ureido)phenylsulfonamido)methyl)benzenesulfonamide] | 100 to 2000
CC(NS(=O)(=O)c1ccc(NC(=O)NCc2ccncc2)cc1)C1CCC1 (centres unmarked) [N-(1-Cyclobutyl-ethyl)-4-(3-pyridin-4-ylmethyl-ureido)-benzenesulfonamide] | 100 to 2000
CCN1CCCC1CNS(=O)(=O)c1ccc(NC(=O)NCc2ccncc2)cc1 (centres unmarked) [N-(1-Ethyl-pyrrolidin-2-ylmethyl)-4-(3-pyridin-4-ylmethyl-ureido)-benzenesulfonamide] | 100 to 2000
CN1CCC(NS(=O)(=O)c2ccc(NC(=O)NCc3ccncc3)cc2)C1 (centres unmarked) [N-(1-Methyl-pyrrolidin-3-yl)-4-(3-pyridin-4-ylmethyl-ureido)-benzenesulfonamide] | 2000 to 5000
CC(NS(=O)(=O)c1ccc(NC(=O)NCc2ccncc2)cc1)c1ccccc1 (centres unmarked) [N-(1-phenylethyl)-4-(3-(pyridin-4-ylmethyl)ureido)benzenesulfonamide] | 100 to 2000
O=C(NCc1ccncc1)Nc1ccc(C(=O)Nc2ccc3c(c2)OCCO3)cc1 [N-(2,3-dihydrobenzo[b][1,4]dioxin-6-yl)-4-(3-(pyridin-4-ylmethyl)ureido)benzamide] | 100 to 2000
CN(C)CCNC(=O)c1ccc(NC(=O)NCc2ccncc2)cc1 [N-(2-(dimethylamino)ethyl)-4-(3-(pyridin-4-ylmethyl)ureido)benzamide] | 5000 to 20000
CN(C)c1ccccc1NC(=O)c1ccc(NC(=O)NCc2ccncc2)cc1 [N-(2-(dimethylamino)phenyl)-4-(3-(pyridin-4-ylmethyl)ureido)benzamide] | 100 to 2000
O=C(NCc1ccncc1)Nc1ccc(C(=O)NCCN2CCCCC2)cc1 [N-(2-(piperidin-1-yl)ethyl)-4-(3-(pyridin-4-ylmethyl)ureido)benzamide] | 2000 to 5000
O=C(NCc1ccncc1)Nc1ccc(S(=O)(=O)NCc2ccccc2Cl)cc1 [N-(2-Chloro-benzyl)-4-(3-pyridin-4-ylmethyl-ureido)-benzenesulfonamide] | < 100
CN(Cc1ccccc1Cl)S(=O)(=O)c1ccc(NC(=O)NCc2ccncc2)cc1 [N-(2-Chloro-benzyl)-N-methyl-4-(3-pyridin-4-ylmethyl-ureido)-benzenesulfonamide] | < 100
N#Cc1ccccc1CNS(=O)(=O)c1ccc(NC(=O)NCc2ccncc2)cc1 [N-(2-Cyano-benzyl)-4-(3-pyridin-4-ylmethyl-ureido)-benzenesulfonamide] | 100 to 2000
CN(C)c1ccccc1CNS(=O)(=O)c1ccc(NC(=O)NCc2ccncc2)cc1 [N-(2-Dimethylamino-benzyl)-4-(3-pyridin-4-ylmethyl-ureido)-benzenesulfonamide] | < 100
CN(C)CCNS(=O)(=O)c1ccc(NC(=O)NCc2ccncc2)cc1 [N-(2-Dimethylamino-ethyl)-4-(3-pyridin-4-ylmethyl-ureido)-benzenesulfonamide] | 100 to 2000
CN(Cc1ccccc1F)S(=O)(=O)c1ccc(NC(=O)NCc2ccncc2)cc1 [N-(2-Fluoro-benzyl)-N-methyl-4-(3-pyridin-4-ylmethyl-ureido)-benzenesulfonamide] | < 100
O=C(NCc1ccncc1)Nc1ccc(S(=O)(=O)NCCO)cc1 [N-(2-Hydroxy-ethyl)-4-(3-pyridin-4-ylmethyl-ureido)-benzenesulfonamide] | 2000 to 5000
CN(CCO)S(=O)(=O)c1ccc(NC(=O)NCc2ccncc2)cc1 [N-(2-Hydroxy-ethyl)-N-methyl-4-(3-pyridin-4-ylmethyl-ureido)-benzenesulfonamide] | 100 to 2000

Compound | EC50 [nM]
COc1ccccc1CN(C)S(=O)(=O)c1ccc(NC(=O)NCc2ccncc2)cc1 [N-(2-Methoxy-benzyl)-N-methyl-4-(3-pyridin-4-ylmethyl-ureido)-benzenesulfonamide] | < 100
COCCNS(=O)(=O)c1ccc(NC(=O)NCc2ccncc2)cc1 [N-(2-Methoxy-ethyl)-4-(3-pyridin-4-ylmethyl-ureido)-benzenesulfonamide] | 100 to 2000
COc1ccccc1NS(=O)(=O)c1ccc(NC(=O)NCc2ccncc2)cc1 [N-(2-Methoxy-phenyl)-4-(3-pyridin-4-ylmethyl-ureido)-benzenesulfonamide] | 100 to 2000
Cc1ccccc1CNS(=O)(=O)c1ccc(NC(=O)NCc2ccncc2)cc1 [N-(2-Methyl-benzyl)-4-(3-pyridin-4-ylmethyl-ureido)-benzenesulfonamide] | 100 to 2000
O=C(NCc1ccncc1)Nc1ccc(S(=O)(=O)NCCN2CCOCC2)cc1 [N-(2-Morpholin-4-yl-ethyl)-4-(3-pyridin-4-ylmethyl-ureido)-benzenesulfonamide] | 100 to 2000
O=C(NCc1ccncc1)Nc1ccc(S(=O)(=O)NCCN2CCCCC2)cc1 [N-(2-Piperidin-1-yl-ethyl)-4-(3-pyridin-4-ylmethyl-ureido)-benzenesulfonamide] | 2000 to 5000
O=C(NCc1ccncc1)Nc1ccc(C(=O)NCc2ccccc2Cl)cc1 [N-(2-chlorobenzyl)-4-(3-(pyridin-4-ylmethyl)ureido)benzamide] | > 20000
O=C(NCc1ccncc1)Nc1ccc(C(=O)Nc2ccccc2Cl)cc1 [N-(2-chlorophenyl)-4-(3-(pyridin-4-ylmethyl)ureido)benzamide] | 100 to 2000
O=C(NCc1ccncc1)Nc1ccc(C(=O)NCc2ccccc2F)cc1 [N-(2-fluorobenzyl)-4-(3-(pyridin-4-ylmethyl)ureido)benzamide] | 2000 to 5000
O=C(NCc1ccncc1)Nc1ccc(S(=O)(=O)NCc2ccccc2F)cc1 [N-(2-fluorobenzyl)-4-(3-(pyridin-4-ylmethyl)ureido)benzenesulfonamide] | 100 to 2000
O=C(NCc1ccncc1)Nc1ccc(C(=O)Nc2ccccc2F)cc1 [N-(2-fluorophenyl)-4-(3-(pyridin-4-ylmethyl)ureido)benzamide] | 100 to 2000
O=C(NCc1ccncc1)Nc1ccc(C(=O)NCCO)cc1 [N-(2-hydroxyethyl)-4-(3-(pyridin-4-ylmethyl)ureido)benzamide] | > 20000
COc1ccccc1CNC(=O)c1ccc(NC(=O)NCc2ccncc2)cc1 [N-(2-methoxybenzyl)-4-(3-(pyridin-4-ylmethyl)ureido)benzamide] | > 20000
COc1ccccc1CNS(=O)(=O)c1ccc(NC(=O)NCc2ccncc2)cc1 [N-(2-methoxybenzyl)-4-(3-(pyridin-4-ylmethyl)ureido)benzenesulfonamide] | 100 to 2000
COCCNC(=O)c1ccc(NC(=O)NCc2ccncc2)cc1 [N-(2-methoxyethyl)-4-(3-(pyridin-4-ylmethyl)ureido)benzamide] | 2000 to 5000
COc1ccccc1NC(=O)c1ccc(NC(=O)NCc2ccncc2)cc1 [N-(2-methoxyphenyl)-4-(3-(pyridin-4-ylmethyl)ureido)benzamide] | 100 to 2000
Cc1ccccc1CNC(=O)c1ccc(NC(=O)NCc2ccncc2)cc1 [N-(2-methylbenzyl)-4-(3-(pyridin-4-ylmethyl)ureido)benzamide] | 100 to 2000
O=C(NCc1ccncc1)Nc1ccc(C(=O)NCCN2CCOCC2)cc1 [N-(2-morpholinoethyl)-4-(3-(pyridin-4-ylmethyl)ureido)benzamide] | 100 to 2000
COc1ccc(NC(=O)c2ccc(NC(=O)NCc3ccncc3)cc2)cc1OC [N-(3,4-dimethoxyphenyl)-4-(3-(pyridin-4-ylmethyl)ureido)benzamide] | 100 to 2000
Cc1ccc(NC(=O)c2ccc(NC(=O)NCc3ccncc3)cc2)cc1C [N-(3,4-dimethylphenyl)-4-(3-(pyridin-4-ylmethyl)ureido)benzamide] | 100 to 2000
CN(C)c1cccc(NC(=O)c2ccc(NC(=O)NCc3ccncc3)cc2)c1 [N-(3-(dimethylamino)phenyl)-4-(3-(pyridin-4-ylmethyl)ureido)benzamide] | 100 to 2000

same assay, conditions: Table B-3; NAMPT activation, NMN formation

Compound | EC50 [nM]
CCOC(=O)c1ccc(NC(=S)NCc2ccncc2)cc1 [Ethyl 4-(3-(pyridin-4-ylmethyl)thioureido)benzoate] | > 20000
CCOC(=O)c1ccc(NC(=O)NCc2cncnc2)cc1 [Ethyl 4-(3-(pyrimidin-5-ylmethyl)ureido)benzoate] | > 20000
CCOC(=O)c1ccc(NC(=O)NCc2ccnc3ccccc23)cc1 [Ethyl 4-(3-(quinolin-4-ylmethyl)ureido)benzoate] | > 20000
CCOC(=O)c1ccc(NC(=O)NCc2ccccc2)cc1 [Ethyl 4-(3-benzylureido)benzoate] | > 20000
COC(=O)c1ccc(N(C)C(=O)NCc2ccncc2)cc1 [Methyl 4-(1-methyl-3-(pyridin-4-ylmethyl)ureido)benzoate] | > 20000
